# Columns and labels:
# [1] = target: SOD1 (Homo sapiens, UniProt P00441); type: binding
# Experimental: A computational search was performed in PubChem to identify all compounds containing a cyclic disulfide motif. […] Of these, 69 compounds cross-linked SOD1 with a wide array of reaction rates. Only 2 compounds could cross-link 100% of SOD1 during the assay, including one 5-membered cyclic disulfide (4-Amino-1,2-Dithiolane-4-Carboxylic Acid) and one 6-membered cyclic thiosulfinate (1,2-dithiane 1-oxide).
# [2] = test system: transthyretin; conditions: only approved drug with a kinetic stabilizing mechanism; cited from earlier work
# Sequence of SOD1 (P00441 2-154 limits assumed): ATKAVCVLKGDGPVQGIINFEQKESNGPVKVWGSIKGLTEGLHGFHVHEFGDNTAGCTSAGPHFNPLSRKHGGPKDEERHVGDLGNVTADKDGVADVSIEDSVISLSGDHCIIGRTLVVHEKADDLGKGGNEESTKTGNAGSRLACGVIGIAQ
compound,measurement,setting,value
"NC1(C(=O)O)CSSC1 [4-Amino-1,2-Dithiolane-4-Carboxylic Acid]",SOD1 cross-linked during the assay,[1],100%
O=C(O)c1ccc2nc(-c3cc(Cl)cc(Cl)c3)oc2c1 [tafamidis],increase in thermal stability,[2],6 °C

# — PMC10826971, “Evaluating protein cross-linking as a therapeutic strategy to stabilize SOD1 variants in a mouse model of familial ALS” (PLOS Biology, 2024)
